{"source": "patent US4001207A", "about": "“Tertiary-aliphatic amidazo compounds” (priority 1971, dated 1977)", "key": {"[1]": {"test": "Temperature of nitrogen/gas evolution, thermal stability", "details": "for temperature at which it evolves nitrogen: evolves nitrogen at / above; for temperature at which it begins to evolve nitrogen: begins to evolve nitrogen (slowly)"}, "[2]": {"test": "Half-life of thermal decomposition", "type": "physicochemical", "experimental": "(§1) It produces 179 cc. of gas per gram at 110° C. The following half-life data have been determined:\n(§2) To a rapidly stirred mixture of 39.0 g. (0.2 m.) 1 -tert.-butylhydrazo-1-cyanocyclohexane, 200 ml. methylene chloride and 100 ml. water was added 14.3 g. […] The reaction was stirred an additional 15 mins. after the addition was complete. The methylene chloride layer was separated, washed twice with 50 ml. portions of saturated NaHCO3 solution, dried over anhydrous sodium sulfate, filtered and the methylene chloride evaporated on a rotating evaporator to obtain 35.0 g. of liquid product that assayed 86.5% by an ultra violet spectrophotometric analysis. Distillation gave a product, b.p. 71° C./1.2 mm. of Hg that assayed 97.6% as 1-tert.-butylazo- 1-cyanocyclohexane. The infrared spectrum was in accord with this structure. […] It produces 146 cc. of gas per gram at 130° C. The following half-life data have been determined:\nThe following half-life data have been determined by gas evolution technique using trichlorobenzene as the solvent: […]"}, "[3]": {"test": "Preliminary toxicological studies", "excerpt": "The new compositions of the present invention eliminate these problems. Most of the new compositions are liquids and are soluble in petroleum hydrocarbon and most of the other common organic solvents. Thus, no dusting, metering, incorporating, mixing, and dispersing problems are encountered in using these new compositions. […] The less toxic nature of the new compositions coupled with their liquid and high solubility properties allows them to be used in many applications where IXA cannot be used."}, "[4]": {"details": "cited from earlier work"}, "[5]": {"details": "background statement; cited from earlier work"}, "[6]": {"test": "Gas produced per gram on thermal decomposition", "type": "physicochemical", "details": "110° C.", "experimental": "as §1\nas §2, with “C.” for “C. The following half-life data have been determined:”"}, "[7]": {"test": "Solubility in petroleum hydrocarbon and common organic solvents", "type": "physicochemical"}}}
{"molecule": "CC(C)OC(=O)N=NC(C)(C)c1ccccc1", "note": "[Isopropyl tert.-cumylazocarboxylate]", "values": [{"measurement": "temperature at which it evolves nitrogen", "setting": "[1]", "result": 80, "unit": "°C"}]}
{"molecule": "CC(C)(C)N=NC(C)(C#N)CCC(=O)O", "note": "(stereo not drawn) [Example X, alpha-tert.-butylazo-alpha-methyl-gamma-carboxybutyronitrile]", "values": [{"measurement": "half-life", "setting": "[2]; 75° C.", "result": 11.0, "unit": "h"}, {"measurement": "half-life", "setting": "[2]; 85° C.", "result": 3.15, "unit": "h"}, {"measurement": "temperature at which it begins to evolve nitrogen", "setting": "[1]", "result": 85, "unit": "°C"}]}
{"molecule": "CC1CC(C)(C)CC(C#N)(N=NC(C)(C)C)C1", "note": "(stereo not drawn) [VIII, 1-tert.-butylazo-1-cyano-3,3,5-trimethylcyclohexane]", "values": [{"measurement": "temperature at which it begins to evolve nitrogen", "setting": "[1]", "result": 100, "unit": "°C"}]}
{"molecule": "CC(C)CC(C)(N=NC(C)(C)C)OOC(C)(CC(C)C)N=NC(C)(C)C", "note": "(stereo not drawn) [LVIII, Di[1-(t-butylazo)-1,3-dimethylbutyl] Peroxide]", "values": [{"measurement": "thermal stability / gas evolution, in words", "setting": "[1]", "result": "began to gas rapidly upon reaching room temperature"}]}
{"molecule": "CC(C)(C)N=NC1(C#N)CCCCC1", "note": "[IV, 1-tert.-butylazo-1-cyanocyclohexane]", "values": [{"measurement": "toxicity relative to IXA and its decomposition residue", "setting": "[3]", "result": "significantly less toxic"}]}
{"molecule": "CC(C)(C)N=NC(=O)C(C)(C)C", "note": "[Example XIX, Pivaloyl tert.-butyldiimide]", "values": [{"measurement": "temperature at which it evolves nitrogen", "setting": "[1]", "result": 35, "unit": "°C"}]}
{"molecule": "CC(C)(C)N=NC(=O)c1ccccc1", "note": "[Example XX, Benzoyl tert.-butyldiimide]", "values": [{"measurement": "temperature at which it evolves nitrogen", "setting": "[1]", "result": 25, "unit": "°C"}]}
{"molecule": "CC(C)(C#N)N=NC(C)(C)c1ccccc1", "note": "[Example XI, Alpha-(tert.-cumylazo)isobutyronitrile]", "values": [{"measurement": "temperature at which it begins to evolve nitrogen", "setting": "[1]", "result": 55, "unit": "°C"}]}
{"molecule": "CC(C)(C#N)N=NC(C)(C)C#N", "note": "[2,2'-azobisisobutyronitrile]", "values": [{"measurement": "solubility in most of the organic common solvents", "setting": "[4]; aromatic hydrocarbons, dioxane, alcohol, ether, carbon tetrachloride", "result": "very low or limited solubility"}, {"measurement": "solubility in petroleum hydrocarbon solvents", "setting": "[4]", "result": "insoluble"}, {"measurement": "toxicity", "setting": "[5]", "result": "toxic solid"}]}
{"molecule": "CC(C)(C)N=NC(C)(C#N)C1CC1", "note": "(stereo not drawn) [Example XII, Alpha-tert-butylazo-alpha-cyclopropylpropionitrile]", "values": [{"measurement": "temperature at which it begins to evolve nitrogen", "setting": "[1]", "result": 75, "unit": "°C"}]}
{"molecule": "CC(C)(C)N=NC1=CCCCC1", "note": "[XXIII, 1(-tert.-butylazo)cyclohexene]", "values": [{"measurement": "temperature at which it evolves nitrogen", "setting": "[1]", "result": 60, "unit": "°C"}]}
{"molecule": "CC(C)(C)N=NC(C)(C#N)C(C)(C)C", "note": "(stereo not drawn) [IX, 2-tert.-butylazo-2-cyano-3,3-dimethylbutane]", "values": [{"measurement": "temperature at which it begins to evolve nitrogen", "setting": "[1]", "result": 95, "unit": "°C"}]}
{"molecule": "CC(C)(C)N=NC(N)=O", "note": "[Example XIII, tert.-butylazoformamide]", "values": [{"measurement": "t 1/2", "setting": "[2]; 120° C., gas evolution technique, trichlorobenzene", "result": 180, "unit": "min"}, {"measurement": "t 1/2", "setting": "[2]; 130° C., gas evolution technique, trichlorobenzene", "result": 52.2, "unit": "min"}, {"measurement": "t 1/2", "setting": "[2]; 150° C., gas evolution technique, trichlorobenzene", "result": 8.4, "unit": "min"}]}
{"molecule": "CC(C)(C)N=NC(C)(C)C#N", "note": "[Example I, Alpha-(tert.-butylazo) isobutyronitrile]", "values": [{"measurement": "t 1/2", "setting": "[2]; 78.8° C.", "result": 600, "unit": "min"}, {"measurement": "t 1/2", "setting": "[2]; 90° C.", "result": 120, "unit": "min"}, {"measurement": "t 1/2", "setting": "[2]; 100° C.", "result": 32.4, "unit": "min"}, {"measurement": "t 1/2", "setting": "[2]; 110° C.", "result": 12, "unit": "min"}, {"measurement": "gas produced", "setting": "[6]", "result": "179 cc. of gas per gram"}, {"measurement": "solubility in petroleum solvents", "setting": "[7]", "result": "soluble in petroleum solvents"}, {"measurement": "toxicity relative to IXA and its decomposition residue", "setting": "[3]", "result": "significantly less toxic"}]}
{"molecule": "CC(C)(C)NNC1(C#N)CCCCC1", "note": "[1-tert.-butylhydrazo-1-cyanocyclohexane]", "values": [{"measurement": "stability on exposure to air", "setting": "[1]; over extended periods", "result": "evolves HCN on exposure to air over extended periods"}]}
{"molecule": "CC(C)CC(C)(N=NC(C)(C)C)OOC(C)(C)CCC(C)(C)OOC(C)(CC(C)C)N=NC(C)(C)C", "note": "(stereo not drawn) [LXV, 2,2,5,8,8,11,11,14,17,17,decamethyl-5,14-diisobutyl-Δ^3,15-3,4,15,16-tetraaza-6,7,12,13-tetraoxaoctadecadiene]", "values": [{"measurement": "temperature at which it evolves nitrogen", "setting": "[1]", "result": 30, "unit": "°C"}]}
{"molecule": "CC(C)(C)N=NC(C)(C)C(N)=O", "note": "[XXV, 2-t-butylazo-2-carbamylpropane]", "values": [{"measurement": "temperature at which it evolves nitrogen", "setting": "[1]", "result": "above 120 °C"}]}
{"molecule": "CC(C)(C)N=NC(=O)NCC(=O)O", "note": "[XVII, tert.-butylazo-N-carboxymethylformamide]", "values": [{"measurement": "temperature at which it begins to evolve nitrogen", "setting": "[1]", "result": 60, "unit": "°C"}]}
{"molecule": "CC(C)(C)N=NC1(C(N)=O)CCCCC1", "note": "[XXIV, 1-tert. butylazo-1-carbamylcyclohexane]", "values": [{"measurement": "temperature at which it evolves nitrogen", "setting": "[1]", "result": "above 120 °C"}]}
{"molecule": "CC(C)CC(C#N)(CC(C)C)N=NC(C)(C)C", "note": "[Example VII, 4-tert.-butylazo-4-cyano-2,6-dimethylheptane]", "values": [{"measurement": "temperature at which it begins to evolve nitrogen", "setting": "[1]", "result": 70, "unit": "°C"}]}
{"molecule": "COC(=O)CNC(=O)N=NC(C)(C)C", "note": "[XVI, tert.-butylazo-N-carbmethoxymethylformamide]", "values": [{"measurement": "temperature at which it begins to evolve nitrogen", "setting": "[1]", "result": 140, "unit": "°C"}]}
